Reference: patent publication US10780061B2, “Composition comprising farnesol and use thereof” (Daegu Gyongbuk Institute of Science and Technology, priority 2014, dated 2020)

Assays:
[1] = Grip strength of old mice; assay type: in vivo; conditions: old mouse, farnesol diet 4 months, vs negative control old mouse
Protocol: 22-month-old female mice (weighing 30 g) are fed with a control diet and a farnesol diet for 4 months. That is, 22-month-old mice are fed for 4 months, and then 26-month-old mice are analyzed. […] The same mouse is used as a control group, except that it is fed with a diet containing no farnesol. Muscle strength, energy expenditure, glucose tolerance, and fat accumulation of each mouse are evaluated. […] To measure grip strength as an index of mouse muscle strength, a grip strength meter (Bioseb) is used. For measurement of grip strength of mouse, its front paws are allowed to grip the grid, and its tail is then pulled back steadily and horizontally. When the animal releases the grid, the value is used as grip strength. The maximal grip strength values of individual mice are measured 5 times, and mean values are obtained. Grip strength is expressed as a force (g, gram) per weight.

[2] = system: PARIS-overexpressing muscles; assay: SDH staining of PARIS-overexpressing tibialis anterior muscles; assay type: in vivo, mouse; conditions: 22-month-old mice, PARIS-GFP adenovirus in tibialis anterior muscle, 4 days
Protocol: Control-GFP adenovirus and PARIS-GFP adenovirus are injected into the tibialis anterior muscles of 22-month-old mice (female, body weight of 30 g), respectively. The old mice are fed with a predetermined diet, and 4 days later, muscles are collected and subjected to histological staining and qRT-PCR. For PARIS overexpression, human full-length PARIS cDNA (IMAGE: 30347892; Open Biosystems) (SEQ ID NO:9) is introduced into BamH1 and EcoR1 restriction sites of a viral vector, AAV/CBA-WPRE-bGHpA (containing chicken beta-actin (CBA) promoter and woodchuck hepatitis virus post-transcriptional-regulatory element (WPRE), and bovine growth hormone polyadenylation signal sequence) to prepare a full-length PARIS cDNA-containing AAV/CBA-WPRE-bGHpA vector, and this vector is introduced into the adenovirus-introduced cells. A high titer adenovirus […] is a viral vector manufactured by Viral Vector Core Facility (University of Iowa Carver College). Virus transduction efficiency is evaluated by GFP fluorescence. To evaluate PARIS overexpression and administration effect of farnesol, frozen sections of tibialis anterior muscles are stained for SDH enzyme activity.
Further, similar to the result in C2C12 myoblast models, an oxidative metabolism reduced by PARIS overexpression is also recovered by farnesol treatment in animal models. […]

human PARIS (WT, C631S) = biological target: T1, human PARIS (WT, C631S) (Homo sapiens, UniProt Q6NUN9, C631S); assay: Immunoprecipitation of PARIS WT and PARIS C631S mutant in C2C12 myoblasts; assay type: cell-based; conditions: C2C12 with FLAG-PARIS C631S, 0.1 uM farnesol, 24 hours
T1 construct: Human full length PARIS cDNA (IMAGE: 30347892); expressed in transfected cells; host or cells: C2C12 myoblasts, pCMV-Tag2A (Stratagene)
T1 sequence (Q6NUN9 whole entry C631S): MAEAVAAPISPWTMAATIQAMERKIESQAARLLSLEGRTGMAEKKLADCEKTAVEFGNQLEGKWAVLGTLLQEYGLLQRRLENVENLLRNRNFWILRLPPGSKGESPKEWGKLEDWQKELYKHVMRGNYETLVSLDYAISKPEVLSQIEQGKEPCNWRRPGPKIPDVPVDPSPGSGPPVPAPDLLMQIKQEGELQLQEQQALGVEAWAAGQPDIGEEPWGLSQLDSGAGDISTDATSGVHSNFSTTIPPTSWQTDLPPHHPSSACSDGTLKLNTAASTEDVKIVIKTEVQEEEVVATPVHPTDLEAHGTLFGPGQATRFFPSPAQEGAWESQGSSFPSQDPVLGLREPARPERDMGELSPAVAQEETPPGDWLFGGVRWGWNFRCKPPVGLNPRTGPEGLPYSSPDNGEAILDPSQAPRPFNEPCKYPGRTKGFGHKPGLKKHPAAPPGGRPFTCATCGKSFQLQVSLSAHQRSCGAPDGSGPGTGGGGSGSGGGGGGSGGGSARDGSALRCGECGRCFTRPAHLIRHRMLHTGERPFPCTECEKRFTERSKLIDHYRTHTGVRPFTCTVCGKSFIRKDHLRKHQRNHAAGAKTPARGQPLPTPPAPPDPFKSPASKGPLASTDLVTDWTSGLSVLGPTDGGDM
Protocol: To examine whether cysteine residues of CGLS sequence (631-634) of an amino acid sequence (SEQ ID NO: 11) of human PARIS are farnesylation sites, a FLAG-PARIS wild-type (WT) gene or a FLAG-PARIS C631S mutant (hereinafter, referred to as “MT”) gene is introduced into C2C12 myoblasts in the presence of DMSO or 0.1 uM farnesol, and the gene is expressed in C2C12 myoblasts by culturing them in DMEM containing 10% FBS for 24 hours. Immunoprecipitation and promoter activity analysis of a cell lysate are performed. The site of amino acid sequence (SEQ ID NO: 10) of mouse PARIS corresponding to CGLS sequence (631-634) of the amino acid sequence (SEQ ID NO: 11) of human PARIS is residues at positions 638-641. This CGLS sequence is conserved in mammals as well as humans and mice, and thus C of CGLS which is located at the C-terminus is a farnesylation site regardless of the length of the sequence.
Human full length PARIS cDNA (IMAGE: 30347892; Open Biosystems) (SEQ ID NO: 9) is cloned into BamH1 and EcoR1 restriction sites of a mammalian gene expression vector, pCMV-Tag2A (Stratagene). The pCMV-Tag2A vector is a plasmid-derived mammalian expression vector for tagging proteins with an N-terminal FLAG epitope. A QuikChange site-directed mutagenesis kit (Stratagene) is used to prepare pCMV-PARIS C631S, in which a PARIS C631S gene mutant obtained by substituting serine for the cysteine residue at position 631 of human PARIS is cloned into BamHI and EcoRI restriction sites of pCMV-Tag2A (Stratagene). After preparation of the mutant gene, the gene is introduced into pCMV to prepare an overexpression vector. To prepare the PARIS C631S gene, a pair of primers (SEQ ID NOS: 12 and 13) is used. Thereafter, a nucleotide sequence of the PARIS C631S gene thus prepared is confirmed by automated DNA sequencing.
In the case of PARIS C631S mutant, no farnesylation occurs. […] In FIG. 5C, − represents C2C12 myoblasts introduced with no PARIS gene, and WT and MT represent C2C12 myoblasts introduced with the wild-type PARIS gene and the mutant PARIS gene, that is, PARIS C631S gene, respectively. […]

[3] = system: C2C12 myoblasts introduced with FLAG-PARIS WT or C631S; assay: Differentiation of PARIS WT or PARIS C631S gene-introduced C2C12 myoblasts (Mhc immunostaining); assay type: cell-based; conditions: C2C12, 0.1 M farnesol, 24 hours
Protocol: Additionally, it is examined whether the presence of farnesol affects farnesylation of PARIS protein in skeletal muscles. To this end, the FLAG-PARIS wild-type (WT) gene or the FLAG-PARIS C631S mutant (hereinafter, referred to as MT) gene is overexpressed in C2C12 myoblasts, and then farnesol is treated thereto, followed by measurement of differentiation. The muscles of mice are introduced with AAV-GFP, AAV-PARIS WT or AAV-PARIS C631S viral vector, and mice are bred by feeding with farnesol, followed by measurement of mitochondrial enzyme activity.
In FIG. 5D, C2C12 myoblasts are introduced with FLAG-PARIS wild-type (WT) gene or FLAG-PARIS C631S mutant (hereinafter, referred to as “MT”) gene, and cultured in the presence of […] farnesol in DMEM containing 10% FBS for 24 hours, followed by measurement of muscle differentiation and mitochondrial enzyme activity. Muscle differentiation is examined by immunostaining using a muscle differentiation marker, Mhc. […] The percentage of Mhc-negative nuclei indicates the cells showing no formation of red-colored myotube among the nucleus-stained myoblasts of A.

SMILES: CC(C)=CCC/C(C)=C/CC/C(C)=C/CO [farnesol, (2E,6E)-3,7,11-trimethyldodeca-2,6,10-trien-1-ol]
- grip strength [1]: significantly increased
- oxidative metabolism (SDH staining) reduced by PARIS overexpression [2]: recovered
- PGC-1α level, PARIS C631S mutant (human PARIS (WT, C631S)): does not affect
- percentage of Mhc-negative nuclei, FLAG-PARIS C631S [3]: does not significantly decrease
- percentage of Mhc-negative nuclei, FLAG-PARIS WT [3]: significantly decreases
